Test results published in ChEMBL document CHEMBL4396913, “Synthesis and biological evaluation of hybrid quinolone-based quaternary ammonium antibacterial agents” (Eur J Med Chem, 2019).
≈ marks a conversion by molar mass, not a printed value.

Key:
[1] = Lipophilicity, log k of the compound at 100 ug/ml by micellar electrokinetic chromatography; assay type: physicochemical
Staphylococcus aureus [2] = test: Antibacterial activity against Staphylococcus aureus ATCC 6538 cultured in MH medium assessed as reduction in bacterial growth incubated for 48 hrs by microbroth dilution method; assay type: functional; settings: ATCC 6538, 48 h
Staphylococcus aureus [3] = test: Bactericidal activity against Staphylococcus aureus ATCC 6538 cultured in MH medium assessed as reduction in bacterial survival incubated for 48 hrs by microbroth dilution method; assay type: functional; settings: ATCC 6538, 48 h
Staphylococcus aureus [4] = test: Antibacterial activity against methicillin resistant Staphylococcus aureus N315 cultured in MH medium assessed as reduction in bacterial growth incubated for 48 hrs by microbroth dilution method; assay type: functional; settings: N315, 48 h
Staphylococcus aureus [5] = test: Bactericidal activity against methicillin resistant Staphylococcus aureus N315 cultured in MH medium assessed as reduction in bacterial survival incubated for 48 hrs by microbroth dilution method; assay type: functional; settings: N315, 48 h
[6] = tested on: Staphylococcus epidermidis; test: Antibacterial activity against Staphylococcus epidermidis ATCC 14990 cultured in MH medium assessed as reduction in bacterial growth incubated for 48 hrs by microbroth dilution method; assay type: functional; settings: ATCC 14990, 48 h
[7] = tested on: Staphylococcus epidermidis; test: Bactericidal activity against Staphylococcus epidermidis ATCC 14990 cultured in MH medium assessed as reduction in bacterial survival incubated for 48 hrs by microbroth dilution method; assay type: functional; settings: ATCC 14990, 48 h
Enterococcus hirae [8] = test: Antibacterial activity against Enterococcus hirae ATCC 1052 cultured in BHI medium assessed as reduction in bacterial growth incubated for 48 hrs by microbroth dilution method; assay type: functional; settings: ATCC 1052, 48 h
Enterococcus hirae [9] = test: Bactericidal activity against Enterococcus hirae ATCC 1052 cultured in BHI medium assessed as reduction in bacterial survival incubated for 48 hrs by microbroth dilution method; assay type: functional; settings: ATCC 1052, 48 h
Bacillus spizizenii [10] = test: Antibacterial activity against Bacillus subtilis ATCC 6633 cultured in MH medium assessed as reduction in bacterial growth incubated for 48 hrs by microbroth dilution method; assay type: functional; settings: ATCC 6633, 48 h
Bacillus spizizenii [11] = test: Bactericidal activity against Bacillus subtilis ATCC 6633 cultured in MH medium assessed as reduction in bacterial survival incubated for 48 hrs by microbroth dilution method; assay type: functional; settings: ATCC 6633, 48 h
Escherichia coli [12] = test: Antibacterial activity against Escherichia coli ATCC 8739 cultured in MH medium assessed as reduction in bacterial growth incubated for 48 hrs by microbroth dilution method; assay type: functional; settings: ATCC 8739, 48 h
Escherichia coli [13] = test: Bactericidal activity against Escherichia coli ATCC 8739 cultured in MH medium assessed as reduction in bacterial survival incubated for 48 hrs by microbroth dilution method; assay type: functional; settings: ATCC 8739, 48 h
Pseudomonas aeruginosa [14] = test: Antibacterial activity against Pseudomonas aeruginosa ATCC 9027 cultured in MH medium assessed as reduction in bacterial growth incubated for 48 hrs by microbroth dilution method; assay type: functional; settings: ATCC 9027, 48 h
Pseudomonas aeruginosa [15] = test: Bactericidal activity against Pseudomonas aeruginosa ATCC 9027 cultured in MH medium assessed as reduction in bacterial survival incubated for 48 hrs by microbroth dilution method; assay type: functional; settings: ATCC 9027, 48 h
Proteus vulgaris [16] = test: Antibacterial activity against Proteus vulgaris NCTC 4635 cultured in MH medium assessed as reduction in bacterial growth incubated for 48 hrs by microbroth dilution method; assay type: functional; settings: NCTC 4635, 48 h
Proteus vulgaris [17] = test: Bactericidal activity against Proteus vulgaris NCTC 4635 cultured in MH medium assessed as reduction in bacterial survival incubated for 48 hrs by microbroth dilution method; assay type: functional; settings: NCTC 4635, 48 h
Staphylococcus aureus [18] = test: Antibacterial activity against methicillin resistant Staphylococcus aureus 6347 cultured in MH medium assessed as reduction in bacterial growth incubated for 48 hrs by microbroth dilution method; assay type: functional; settings: Staphylococcus aureus, 6347, 48 h
Staphylococcus aureus [19] = test: Bactericidal activity against methicillin resistant Staphylococcus aureus 6347 cultured in MH medium assessed as reduction in bacterial survival incubated for 48 hrs by microbroth dilution method; assay type: functional; settings: Staphylococcus aureus, 6347, 48 h
[20] = tested on: Staphylococcus epidermidis; test: Antibacterial activity against methicillin resistant Staphylococcus epidermidis ATCC 13199 cultured in MH medium assessed as reduction in bacterial growth incubated for 48 hrs by microbroth dilution method; assay type: functional; settings: ATCC 13199, 48 h
[21] = tested on: Staphylococcus epidermidis; test: Bactericidal activity against methicillin resistant Staphylococcus epidermidis ATCC 13199 cultured in MH medium assessed as reduction in bacterial survival incubated for 48 hrs by microbroth dilution method; assay type: functional; settings: ATCC 13199, 48 h
Streptococcus pneumoniae [22] = test: Antibacterial activity against Streptococcus pneumoniae cultured in MH medium assessed as reduction in bacterial growth incubated for 48 hrs by microbroth dilution method; assay type: functional
Streptococcus pneumoniae [23] = test: Bactericidal activity against Streptococcus pneumoniae cultured in MH medium assessed as reduction in bacterial survival incubated for 48 hrs by microbroth dilution method; assay type: functional
Serratia marcescens [24] = test: Antibacterial activity against Serratia marcescens ATCC 12795 cultured in MH medium assessed as reduction in bacterial growth incubated for 48 hrs by microbroth dilution method; assay type: functional; settings: ATCC 12795, 48 h
Serratia marcescens [25] = test: Bactericidal activity against Serratia marcescens ATCC 12795 cultured in MH medium assessed as reduction in bacterial survival incubated for 48 hrs by microbroth dilution method; assay type: functional; settings: ATCC 12795, 48 h
HEK293 [26] = test: Cytotoxicity against human HEK293 cells assessed as cell viability upto 20 uM incubated for 72 hrs by MTT assay; assay type: cell-based; settings: hek293, 72 h
HEK293 [27] = test: Cytotoxicity against human HEK293 cells assessed as changes in cell morphology upto 20 uM incubated for 72 hrs by MTT assay; assay type: cell-based; settings: hek293, 72 h

Row | SMILES | log K [1] | MIC (Staphylococcus aureus [2]) | MBC (Staphylococcus aureus [3]) | MIC (Staphylococcus aureus [4]) | MBC (Staphylococcus aureus [5]) | MIC [6] | MBC [7] | MIC (Enterococcus hirae [8]) | MIC (Bacillus spizizenii [10]) | MBC (Bacillus spizizenii [11]) | MIC (Escherichia coli [12]) | MBC (Escherichia coli [13]) | MIC (Pseudomonas aeruginosa [14]) | MBC (Pseudomonas aeruginosa [15]) | MIC (Proteus vulgaris [16]) | MBC (Proteus vulgaris [17]) | MIC (Staphylococcus aureus [18]) | MIC [20] | MIC (Streptococcus pneumoniae [22]) | MIC (Serratia marcescens [24]) | also measured
1 | CCn1cc(C(=O)O)c(=O)c2cc(F)c(N3CCNCC3)cc21 [NORFLOXACIN] | 0.1033 | 0.25 µg/mL (≈ 0.783 µM) | 0.25 µg/mL (≈ 0.783 µM) | 1 µg/mL (≈ 3.13 µM) | 2 µg/mL (≈ 6.26 µM) | 0.5 µg/mL (≈ 1.57 µM) | 2 µg/mL (≈ 6.26 µM) | 64 µg/mL (≈ 200 µM) | 0.125 µg/mL (≈ 0.391 µM) | 0.125 µg/mL (≈ 0.391 µM) | 0.032 µg/mL (≈ 0.1 µM) | 0.063 µg/mL (≈ 0.197 µM) | 0.25 µg/mL (≈ 0.783 µM) | 0.25 µg/mL (≈ 0.783 µM) | 0.016 µg/mL (≈ 0.0501 µM) | 0.016 µg/mL (≈ 0.0501 µM) | 1 µg/mL (≈ 3.13 µM) | 0.125 µg/mL (≈ 0.391 µM) | 128 µg/mL (≈ 401 µM) | 0.25 µg/mL (≈ 0.783 µM) | MBC (Enterococcus hirae [9]): 64 µg/mL (≈ 200 µM); MBC (Staphylococcus aureus [19]): 1 µg/mL (≈ 3.13 µM); MBC [21]: 0.125 µg/mL (≈ 0.391 µM); MBC (Streptococcus pneumoniae [23]): > 512 µg/mL; MBC (Serratia marcescens [25]): 0.25 µg/mL (≈ 0.783 µM)
2 | CCn1cc(C(=O)O)c(=O)c2cc(F)c(N3CC[N+]4(CC3)CN3C(=N4)C(C(=O)O)=Cc4ccccc43)cc21.[Cl-] | -0.1044 | 64 µg/mL | 64 µg/mL | 64 µg/mL | 64 µg/mL | 32 µg/mL | 32 µg/mL | > 512 µg/mL | 16 µg/mL | 16 µg/mL | 4 µg/mL | 4 µg/mL | 64 µg/mL | 64 µg/mL | 2 µg/mL | 2 µg/mL | 32 µg/mL | 64 µg/mL | > 512 µg/mL | 32 µg/mL | MBC (Staphylococcus aureus [19]): 32 µg/mL; MBC [21]: 64 µg/mL; MBC (Serratia marcescens [25]): 32 µg/mL; Activity (HEK293 [26]): Non-Toxic; Activity (HEK293 [27]): Non-Toxic
3 | CCn1cc(C(=O)O)c(=O)c2cnc(N3CC[N+]4(CC3)CN3C(=N4)C(C(=O)O)=Cc4ccccc43)nc21.[Cl-] | -0.4434 | 512 µg/mL | 512 µg/mL | 512 µg/mL | 512 µg/mL | 256 µg/mL | 256 µg/mL | > 512 µg/mL | 64 µg/mL | 64 µg/mL | 16 µg/mL | 16 µg/mL | 128 µg/mL | 128 µg/mL | 16 µg/mL | 16 µg/mL | 256 µg/mL | 8 µg/mL | > 512 µg/mL | 128 µg/mL | MBC (Staphylococcus aureus [19]): 256 µg/mL; MBC [21]: 16 µg/mL; MBC (Serratia marcescens [25]): 128 µg/mL; Activity (HEK293 [26]): Non-Toxic; Activity (HEK293 [27]): Non-Toxic
4 | CC1=CC(C)=C(C(=O)O)C2=N[N+]3(CN12)[C@H](C)CN(c1c(F)c(N)c2c(=O)c(C(=O)O)cn(C4CC4)c2c1F)C[C@@H]3C.[Cl-] (stereo partly specified) | -0.2606 | 8 µg/mL | 16 µg/mL | 8 µg/mL | 8 µg/mL | 4 µg/mL | 16 µg/mL | > 512 µg/mL | 2 µg/mL | 2 µg/mL | 4 µg/mL | 4 µg/mL | 32 µg/mL | > 512 µg/mL | 1 µg/mL | 2 µg/mL | 4 µg/mL | 2 µg/mL | > 512 µg/mL | 32 µg/mL | MBC (Staphylococcus aureus [19]): 8 µg/mL; MBC [21]: 4 µg/mL; MBC (Serratia marcescens [25]): 32 µg/mL; Activity (HEK293 [26]): Non-Toxic; Activity (HEK293 [27]): Non-Toxic
5 | CCn1cc(C(=O)O)c(=O)c2cnc(N3CC[N+]4(CC3)CN3C(C)=CC(C)=C(C(=O)O)C3=N4)nc21.[Cl-] | -0.5725 | > 512 µg/mL | – | > 512 µg/mL | – | > 512 µg/mL | – | > 512 µg/mL | > 512 µg/mL | – | > 512 µg/mL | – | > 512 µg/mL | – | 256 µg/mL | > 512 µg/mL | > 512 µg/mL | > 512 µg/mL | > 512 µg/mL | > 512 µg/mL | Activity (HEK293 [26]): Non-Toxic; Activity (HEK293 [27]): Non-Toxic
